Laboratory results published in paper PMC6804212, “Chain Substituted Cannabilactones with Selectivity for the CB2 Cannabinoid Receptor” (Molecules, 2019).
Read-outs that look alike come from different tables or passages of the source.

Assays:
[1] = biological target: T1, hCB2 receptor (Homo sapiens, UniProt P34972); test: cAMP assay: decrease in forskolin-stimulated cAMP in HEK293 cells stably expressing hCB2; assay type: cell-based; design: expressed in transfected cells; conditions: for classification at hCB2: forskolin-stimulated cAMP assay; for E(max): maximum inhibition of forskolin stimulated cAMP levels, as percentage of CP-55,940 response at 500 nM
Description: HEK293 cells stably expressing hCB2 receptors were used for the studies. The cAMP assay was carried out using PerkinElmer’s Lance ultra cAMP kit following the protocol of the manufacturer. Briefly, the assays were carried out in 384-well plates using 1000–1500 cells/well. The cells were harvested with non-enzymatic cell dissociation reagent Versene, washed once with HBSS and resuspended in the stimulation buffer. The various concentrations of the test compound (5 μL) in forskolin (2 μM final concentration) containing stimulation buffer were added to the plate followed by the cell suspension (5 μL). Cells were stimulated for 30 min at room temperature. Eu-cAMP tracer working solution (5 μL) and Ulight-anti-cAMP working solution (5 μL) were then added to the plate and incubated at room temperature for 60 min. The data were collected on a Perkin-Elmer Envision instrument. The EC50 values were determined by non-linear regression analysis using GraphPad Prism software (GraphPad Software, Inc., San Diego, CA, USA).

[2] = biological target: T2, mouse CB2 receptor (Mus musculus, UniProt P47936); test: Radioligand competition binding, [3H]CP-55,940, membranes from HEK293 cells expressing mouse CB2; conditions: for selectivity for mCB2 over rCB1: from Ki values; for rCB1/mCB2: ratio of Ki values, rCB1 over mCB2
T2 construct: expressed in transfected cells; host or cells: HEK293
Description: (§1) Inhibition constant values (Ki) from the respective competition binding curves are listed in Table 1 in which our first generation cannabilactone analog AM1714 is included for comparison. The current data of AM1714 for mCB2 are slightly different when compared to those we published earlier. This is because the compound was first assayed in a different mCB2 receptor preparation, e.g., mouse spleen membrane.
(§2) Results from the competition assays were analyzed using nonlinear regression to determine the IC50 values for the ligand [59]; Ki values were calculated from the IC50 (Prism by GraphPad Software, Inc.). Each experiment was performed in triplicate and Ki values determined from three independent experiments and are expressed as the mean of the three values.

[3] = biological target: T1, hCB2 receptor; test: Radioligand competition binding, [3H]CP-55,940, membranes from HEK293 cells expressing human CB2; design: expressed in transfected cells; host or cells: HEK293; conditions: for greater affinity for mCB2 than for hCB2: from Ki values; for hCB2/mCB2 / rCB1/hCB2: ratio of Ki values; for hCB2/mCB2: hCB2 over mCB2; for rCB1/hCB2: rCB1 over hCB2; for Ki: read-out: Ki hCB2
Description: Indeed, in our original work on the cannabilactone class of compounds, we have identified species-specific variation in CB2 affinity. For this reason, the key compounds were also assayed using membranes from HEK293 cells expressing human CB2 (hCB2).
as §2

[4] = biological target: T3, rat CB1 receptor (Rattus norvegicus, UniProt P20272); test: Radioligand competition binding, [3H]CP-55,940, rat brain membranes
T3 construct: membrane preparations from rat brain; from tissue; host or cells: rat brain membranes
Description: as §1, §2

T1 sequence (P34972 whole entry): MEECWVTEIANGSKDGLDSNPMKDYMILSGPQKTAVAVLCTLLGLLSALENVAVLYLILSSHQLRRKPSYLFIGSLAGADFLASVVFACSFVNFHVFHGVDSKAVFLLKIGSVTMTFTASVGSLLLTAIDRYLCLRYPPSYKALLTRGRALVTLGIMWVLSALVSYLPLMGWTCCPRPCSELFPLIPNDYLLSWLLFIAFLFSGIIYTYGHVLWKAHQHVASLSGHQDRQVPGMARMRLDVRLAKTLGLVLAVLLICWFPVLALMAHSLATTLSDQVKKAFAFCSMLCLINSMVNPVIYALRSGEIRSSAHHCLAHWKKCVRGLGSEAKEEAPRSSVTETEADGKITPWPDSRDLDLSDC
T3 sequence (P20272 whole entry): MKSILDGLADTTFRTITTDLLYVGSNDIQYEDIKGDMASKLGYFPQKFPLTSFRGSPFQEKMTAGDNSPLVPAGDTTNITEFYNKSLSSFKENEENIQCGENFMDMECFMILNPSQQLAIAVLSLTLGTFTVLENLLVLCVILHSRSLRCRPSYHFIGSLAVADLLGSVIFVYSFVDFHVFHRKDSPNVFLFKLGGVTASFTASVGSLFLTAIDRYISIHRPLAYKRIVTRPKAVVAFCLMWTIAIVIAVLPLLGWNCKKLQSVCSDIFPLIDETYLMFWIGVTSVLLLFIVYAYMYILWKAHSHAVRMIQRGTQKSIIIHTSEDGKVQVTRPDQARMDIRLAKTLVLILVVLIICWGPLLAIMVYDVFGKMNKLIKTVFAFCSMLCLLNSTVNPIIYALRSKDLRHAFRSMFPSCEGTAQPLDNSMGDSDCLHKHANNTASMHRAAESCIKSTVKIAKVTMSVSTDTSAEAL
T2 sequence (P47936 whole entry): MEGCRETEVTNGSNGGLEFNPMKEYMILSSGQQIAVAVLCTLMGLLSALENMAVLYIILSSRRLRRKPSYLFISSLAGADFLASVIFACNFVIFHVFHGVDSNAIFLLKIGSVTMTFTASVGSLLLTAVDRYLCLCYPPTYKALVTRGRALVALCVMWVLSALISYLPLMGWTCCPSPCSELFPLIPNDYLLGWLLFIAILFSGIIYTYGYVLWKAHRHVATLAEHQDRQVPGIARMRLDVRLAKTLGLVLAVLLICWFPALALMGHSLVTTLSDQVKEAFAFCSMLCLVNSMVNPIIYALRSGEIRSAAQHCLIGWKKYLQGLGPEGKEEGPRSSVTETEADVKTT

SMILES | rCB1/mCB2 [2] | Ki [2] | melting point | Ki ([4]; read-out: Ki rCB1) | other results
CCCCCCC(C)(C)c1cc(O)c2c(c1)oc(=O)c1ccc(OC)cc12 [Compound 1a] |  |  |  |  | EC50 [1]: 0.0105 ± 0.0025 µM; classification at hCB2 [1]: agonist; E(max) [1]: 73%
CCCCCCC(C)(C)c1cc(O)c2c(c1)oc(=O)c1ccc(O)cc12 [Compound 1b, reference compound] | 21.3 |  |  |  | selectivity for mCB2 over rCB1 [2]: 21- to 32 fold; Ki ([2]; read-out: Ki mCB2): 0.0047 ± 0.0018 µM; EC50 [1]: 0.0369 ± 0.0068 µM; classification at hCB2 [1]: agonist; E(max) [1]: 77%; greater affinity for mCB2 than for hCB2 [3]: 18 fold; hCB2/mCB2 [3]: 17.7; rCB1/hCB2 [3]: 1.2; Ki [3]: 0.0836 ± 0.0232 µM; Ki [4]: 0.1 ± 0.024 µM
O=c1oc2cc(C3(CCCCBr)CCCC3)cc(O)c2c2cc(O)ccc12 [Compound 3a, 3-[1-(4-Bromobutyl)cyclopentyl]-1,9-dihydroxy-6H-dibenzo[b,d]pyran-6-one] | 18.8 | 0.0208 ± 0.0059 µM | 96 to 98 °C | 0.39 ± 0.132 µM | 
O=c1oc2cc(C3(CCCCCBr)CCCC3)cc(O)c2c2cc(O)ccc12 [Compound 3b, 3-[1-(5-Bromopentyl)cyclopentyl]-1,9-dihydroxy-6H-dibenzo[b,d]pyran-6-one] |  | 0.0163 ± 0.0052 µM |  | 0.37 ± 0.13 µM | 
O=c1oc2cc(C3(CCCBr)CCCC3)cc(O)c2c2cc(O)ccc12 [Compound 3c, 3-[1-(3-Bromopropyl)cyclopentyl]-1,9-dihydroxy-6H-dibenzo[b,d]pyran-6-one] |  | 0.0243 ± 0.0039 µM |  | 0.405 ± 0.122 µM | 
CCCCCCC1(c2cc(O)c3c(c2)oc(=O)c2ccc(O)cc23)CCCC1 [Compound 3d, 3-(1-Hexyl-cyclopentyl]-1,9-dihydroxy-6H-dibenzo[b,d]pyran-6-one] | 31.7 |  | 153 to 155 °C |  | selectivity for mCB2 over rCB1 [2]: 21- to 32 fold; Ki ([2]; read-out: Ki mCB2): 0.0084 ± 0.0025 µM; greater affinity for mCB2 than for hCB2 [3]: 3 fold; hCB2/mCB2 [3]: 3.3; rCB1/hCB2 [3]: 9.5; Ki [3]: 0.028 ± 0.0097 µM; Ki [4]: 0.266 ± 0.058 µM
N#CCCCCC1(c2cc(O)c3c(c2)oc(=O)c2ccc(O)cc23)CCCC1 [Compound 3e, 3-[1-(4-Cyanobutyl)cyclopentyl]-1,9-dihydroxy-6H-dibenzo[b,d]pyran-6-one] | 25.7 | 0.0118 ± 0.0041 µM | 138 to 140 °C | 0.304 ± 0.073 µM | 
N#CCCCCCC1(c2cc(O)c3c(c2)oc(=O)c2ccc(O)cc23)CCCC1 [Compound 3f, 3-[1-(5-Cyanopentyl)cyclopentyl]-1,9-dihydroxy-6H-dibenzo[b,d]pyran-6-one] |  |  |  |  | Ki ([2]; read-out: Ki mCB2): 0.0049 ± 0.0012 µM; EC50 [1]: 0.0037 ± 0.0015 µM; classification at hCB2 [1]: agonist; classification at hCB2 ([1]; listed as AM4346): potent CB2 agonist; E(max) [1]: 89%; greater affinity for mCB2 than for hCB2 [3]: 7 fold; Ki [3]: 0.0338 ± 0.0104 µM; Ki [4]: 0.64 ± 0.152 µM
N#CCCCC1(c2cc(O)c3c(c2)oc(=O)c2ccc(O)cc23)CCCC1 [Compound 3g, 3-[1-(3-Cyanopropyl)cyclopentyl]-1,9-dihydroxy-6H-dibenzo[b,d]pyran-6-one] | 16.2 | 0.0179 ± 0.0058 µM | 118 to 120 °C | 0.29 ± 0.064 µM | 
CC(C)N(C(=O)c1ccc(O)cc1-c1c(O)cc(C2(CCCCBr)CCCC2)cc1O)C(C)C [Compound 23a, 4′-[1-(4-Bromobutyl)cyclopentyl]-2′,5,6′-trihydroxy-N,N-diisopropyl-[1,1′-biphenyl]-2-carboxamide] | 31.3 | 0.0224 ± 0.0045 µM | 183 to 185 °C | 0.702 ± 0.22 µM | 
CC(C)N(C(=O)c1ccc(O)cc1-c1c(O)cc(C2(CCCCCBr)CCCC2)cc1O)C(C)C [Compound 23b, 4′-[1-(5-Bromopentyl)cyclopentyl]-2′,5,6′-trihydroxy-N,N-diisopropyl-[1,1′-biphenyl]-2-carboxamide] | 42.8 | 0.0174 ± 0.0048 µM | 190 to 192 °C | 0.745 ± 0.215 µM | 
CC(C)N(C(=O)c1ccc(O)cc1-c1c(O)cc(C2(CCCBr)CCCC2)cc1O)C(C)C [Compound 23c, 4′-[1-(3-Bromopropyl)cyclopentyl]-2′,5,6′-trihydroxy-N,N-diisopropyl-[1,1′-biphenyl]-2-carboxamide] | 21.8 | 0.0105 ± 0.0035 µM | 178 to 180 °C | 0.229 ± 0.07 µM | 
CCCCCCC1(c2cc(O)c(-c3cc(O)ccc3C(=O)N(C(C)C)C(C)C)c(O)c2)CCCC1 [Compound 23d, 4′-(1-Hexyl-cyclopentyl)-2′,5,6′-trihydroxy-N,N-diisopropyl-[1,1′-biphenyl]-2-carboxamide] | 59.8 | 0.0057 ± 0.0015 µM | 185 to 187 °C | 0.341 ± 0.1 µM | selectivity for mCB2 over rCB1 [2]: 60 fold; response in hCB2 cAMP assay ([1]; concentrations up to 2 μM): failed to show any responses
